Data taken from patent US8940331B2, “Hydrogels, methods of making hydrogels, methods of using hydrogels, and methods of isolating, trapping, attracting, and/or killing cancer cells” (The Board of Trustees of the Leland Stanford Junior …, priority 2008, dated 2015).
Like-named read-outs stand apart in the source and are kept apart here. Square brackets hold non-standard residues; d marks the D form. Peptide text beside a SMILES is read from it. Nspe = C[C@H](NCC(=O)O)c1ccccc1; Nphe = O=C(O)CNCc1ccccc1; Nlys = NCCCCNCC(=O)O

What was measured:
[1] = test system: Primary dermal fibroblast; assay: MTS cell viability assay, primary dermal fibroblasts; assay type: cell-based; conditions: in vitro; data not shown
Protocol: (§1) A library of cationic, amphipathic peptoid oligomers (“capetoids”) with various chain lengths, charges, helicity, hydrophobicity and amphipathicity have been synthesized. Their activities towards several in vitro cultured cancer cell lines were tested via MTS assays. Primary dermal fibroblasts and freshly isolated red blood cells were also tested to estimate their biosafety. […] In some concentration ranges, these peptoids kill cancer cells efficiently while being relatively safe to primary dermal fibroblasts. […] Furthermore, the actions of these peptoids were not affected by the known multidrug resistance. In MCF 7 cells and the multidrug resistant MCF 7 cells (kindly provided by Prof. Brandy Sikic at Stanford) which overexpress P-glycoproteins, these peptoids had similar cytotoxicities.

human RBCs = assay type: cell-based
Protocol: as §1

[2] = assay type: cell-based; conditions: MTS assay, cells treated 24 h, concentration causing 50% cell death
Protocol: as §1

[3] = MTS cell viability assay, primary dermal fibroblasts; assay type: cell-based; conditions: MTS assay, cells treated 24 h; concentration causing 50% cell death; read-out: LC50 Primary dermal fibroblast
Protocol: as §1

breast cancer cells = assay: In vitro chemotaxis transwell assay; assay type: cell-based
Source text: Different chemoattractants can be chosen with regard to the cancer types of interest. As an example, Table 2 summarizes chemoattractant candidates for breast cancer. The efficacies and dosages of chemoattractants are being characterized by in vitro chemotaxis assays. The chemotactic effects of an important candidate, stromal cell-derived factor 1 (SDF-1), have been confirmed in vitro using the transwell assay.

[4] = read-out: LC50 Lncap (prostate cancer)
[5] = read-out: LC50 MCF7 (breast cancer)
[6] = read-out: LC50 MEL28 (Melanoma)
[7] = read-out: LC50 Ovcar3 (ovarian cancer)

Molecule	Killing of primary fibroblasts compared with cancer cell lines [1]	HC10 Red blood cells (human RBCs; concentration causing 10% hemolysis of human RBCs)	CC50 [2, 4]	CC50 [2, 5]	CC50 [2, 6]	CC50 [2, 7]	CC50 [3]	Chemotactic effects (breast cancer cells)	HC10 Red blood cells (human RBCs)
CC(=O)O[C@@]12CO[C@@H]1C[C@H](O)[C@@]1(C)C(=O)[C@H](O)C3=C(C)[C@@H](OC(=O)[C@H](O)[C@@H](NC(=O)OC(C)(C)C)c4ccccc4)C[C@@](O)([C@@H](OC(=O)c4ccccc4)[C@H]21)C3(C)C [docetaxel, reference compound]	killed primary fibroblasts as efficiently as cancer cell lines								
COc1cccc2c1C(=O)c1c(O)c3c(c(O)c1C2=O)C[C@@](O)(C(=O)CO)C[C@@H]3O[C@H]1C[C@H](N)[C@H](O)[C@H](C)O1 [Doxorubicin, reference compound]	killed primary fibroblasts as efficiently as cancer cell lines								
C[C@@H](c1ccccc1)N(CC(N)=O)C(=O)CN(C(=O)CN(CCCCN)C(=O)CN(C(=O)CN(C(=O)CN(CCCCN)C(=O)CN(C(=O)CN(C(=O)CN(CCCCN)C(=O)CN(C(=O)CN(C(=O)CNCCCCN)[C@@H](C)c1ccccc1)[C@@H](C)c1ccccc1)[C@@H](C)c1ccccc1)[C@@H](C)c1ccccc1)[C@@H](C)c1ccccc1)[C@@H](C)c1ccccc1)[C@@H](C)c1ccccc1 [Peptoid 1, H-(NLys-Nspe-Nspe)4-NH2] (H-[Nlys][Nspe][Nspe][Nlys][Nspe][Nspe][Nlys][Nspe][Nspe][Nlys][Nspe][Nspe]-NH2)		21000 µM	5 µM	4.5 µM	5 µM	6.5 µM	5 µM		
stromal cell-derived factor 1 [SDF-1]								confirmed	
C[C@@H](c1ccccc1)N(CC(N)=O)C(=O)CN(CCCCN)C(=O)CN(C(=O)CN(C(=O)CN(CCCCN)C(=O)CN(C(=O)CN(C(=O)CN(CCCCN)C(=O)CN(C(=O)CN(C(=O)CNCCCCN)[C@@H](C)c1ccccc1)[C@@H](C)c1ccccc1)[C@@H](C)c1ccccc1)[C@@H](C)c1ccccc1)[C@@H](C)c1ccccc1)[C@@H](C)c1ccccc1 [Peptoid 111mer, H-(NLys-Nspe-Nspe)3-NLys-Nspe-NH2] (H-[Nlys][Nspe][Nspe][Nlys][Nspe][Nspe][Nlys][Nspe][Nspe][Nlys][Nspe]-NH2)			8 µM	9 µM	15 µM	10.5 µM	18.5 µM		103 µM
C[C@@H](c1ccccc1)N(CC(=O)N(CC(=O)N(CCCCN)CC(=O)N(CC(=O)N(CC(=O)N(CCCCN)CC(=O)N(CC(=O)N(CC(=O)N(CCCCN)CC(=O)N(CC(=O)N(CC(N)=O)Cc1ccccc1)Cc1ccccc1)Cc1ccccc1)Cc1ccccc1)Cc1ccccc1)Cc1ccccc1)Cc1ccccc1)C(=O)CNCCCCN [1achiral-Nspe 2, H-NLys-Nspe-Npm-(NLys-Npm-Npm)3-NH2] (H-[Nlys][Nspe][Nphe][Nlys][Nphe][Nphe][Nlys][Nphe][Nphe][Nlys][Nphe][Nphe]-NH2)			8.5 µM	14.5 µM	18 µM	15.5 µM	36.5 µM		160 µM
NCCCCNCC(=O)N(CC(=O)N(CC(=O)N(CCCCN)CC(=O)N(CC(=O)N(CC(=O)N(CCCCN)CC(=O)N(CC(=O)N(CC(=O)N(CCCCN)CC(=O)N(CC(=O)N(CC(N)=O)Cc1ccccc1)Cc1ccccc1)Cc1ccccc1)Cc1ccccc1)Cc1ccccc1)Cc1ccccc1)Cc1ccccc1)Cc1ccccc1 [Peptoid 1achiral, H-(NLys-Npm-Npm)4-NH2] (H-[Nlys][Nphe][Nphe][Nlys][Nphe][Nphe][Nlys][Nphe][Nphe][Nlys][Nphe][Nphe]-NH2)			10.5 µM	15 µM	18.5 µM	16 µM	39.5 µM		183 µM
C[C@@H](c1ccccc1)N(CC(N)=O)C(=O)CN(C(=O)CN(CCCCN)C(=O)CN(Cc1ccccc1)C(=O)CN(Cc1ccccc1)C(=O)CN(CCCCN)C(=O)CN(C(=O)CN(C(=O)CN(CCCCN)C(=O)CN(Cc1ccccc1)C(=O)CN(Cc1ccccc1)C(=O)CNCCCCN)[C@@H](C)c1ccccc1)[C@@H](C)c1ccccc1)[C@@H](C)c1ccccc1 [1-Npm2,3,8,9, H-(NLys-Npm-Npm-NLys-Nspe-Nspe)2-NH2]			10.5 µM	10 µM	16.5 µM	11 µM	18.5 µM		80 µM
